Values quoted from earlier work in US11628185B2, “Stabilized active oxygen-generating antiseptic compositions, irrigation solutions, and articles” (priority 2021, dated 2023).

Tests used:
[1] = tested on: post-operative infection
[2] = tested on: osteoblasts, fibroblasts, and myoblasts
[3] = all tested concentrations, even dilute 0.35%; used for more than 1 minute
[4] = topical application prior to wound closure

## povidone-iodine
[1]; Mayo Clinic case series, more than 10,000 THAs and TKAs
  effect of lavage on post-operative infection risk: no risk reduction effect
[1]; meta-analysis March 2020, seven studies, 31,213 TJA cases
  post-operative infection rates versus non-povidone-iodine lavage: no differences
[2]
  effect on cell migration and survival: inhibiting cell migration and survival
[3]
  chondrotoxic effect: pronounced chondrotoxic effect
[4]
  serum iodine level: significant increases
